Values joined by “and” are separate entries in the source; they are usually repeats but may differ in a detail not shown here. Equal values may be shown once.
Key:
[1] = Crystal; for vapor or sublimation pressure: Calculated from knudsen effusion weight loss; for Normal melting temperature: DTA
[2] = Molar enthalpy of transition or fusion; settings: Crystal; DSC

O=C(O)c1c(O)cccc1O [2,6-dihydroxybenzoic acid]
[1]
Settings | vapor or sublimation pressure
347.14 K | 0.000138 kPa and 0.000131 kPa and 0.000133 kPa
349.32 K | 0.000171 kPa and 0.000173 kPa
351.02 K | 0.000204 kPa and 0.000208 kPa
353.26 K | 0.000255 kPa and 0.000249 kPa
355.35 K | 0.000323 kPa and 0.000336 kPa
357.2 K | 0.000401 kPa and 0.000391 kPa and 0.000386 kPa
359.28 K | 0.000491 kPa and 0.000477 kPa and 0.000479 kPa
361.38 K | 0.000609 kPa and 0.00059 kPa and 0.000586 kPa
363.19 K | 0.000713 kPa and 0.000692 kPa and 0.000679 kPa
365.17 K | 0.000881 kPa and 0.000845 kPa and 0.000834 kPa

O=C(O)c1cc(O)cc(O)c1 [3,5-dihydroxybenzoic acid]
Settings | Molar enthalpy of transition or fusion [kcal/mol] | Normal melting temperature [°C]
[1] | – | 235.2
[2] | 9.15 | –

[1]
Settings | vapor or sublimation pressure
407.36 K | 9.8e-05 kPa and 9.7e-05 kPa
410.25 K | 0.00013 kPa and 0.000129 kPa
413.16 K | 0.000176 kPa and 0.000179 kPa and 0.000175 kPa
416.13 K | 0.000237 kPa and 0.000234 kPa and 0.000238 kPa
419.21 K | 0.000305 kPa and 0.00031 kPa and 0.000311 kPa
422.2 K | 0.000407 kPa and 0.000409 kPa and 0.000412 kPa
425.23 K | 0.000561 kPa and 0.000563 kPa

O=C(O)c1ccc(O)cc1O [2,4-dihydroxybenzoic acid]
[1]
Settings | vapor or sublimation pressure
376.22 K | 0.000198 kPa and 0.000192 kPa and 0.000195 kPa
377.32 K | 0.000224 kPa and 0.000217 kPa and 0.00022 kPa
379.13 K | 0.000269 kPa and 0.00026 kPa and 0.000264 kPa
381.15 K | 0.000315 kPa and 0.000319 kPa and 0.000332 kPa
383.13 K | 0.000399 kPa and 0.000388 kPa and 0.00039 kPa
385.12 K | 0.000501 kPa and 0.000489 kPa and 0.000493 kPa
387.17 K | 0.000613 kPa and 0.000591 kPa and 0.000593 kPa
389.35 K | 0.000762 kPa and 0.000732 kPa and 0.000741 kPa
391.3 K | 0.000916 kPa and 0.000884 kPa and 0.000893 kPa
392.11 K | 0.000988 kPa and 0.000961 kPa and 0.000955 kPa

O=C(O)c1cc(O)ccc1O [2,5-dihydroxybenzoic acid]
Settings | Molar enthalpy of transition or fusion [kcal/mol] | Normal melting temperature [°C]
[1] | – | 203.1
[2] | 4.97 | –

[1]
Settings | vapor or sublimation pressure
372.14 K | 0.00015 kPa and 0.000146 kPa and 0.000145 kPa
374.13 K | 0.000192 kPa and 0.000182 kPa and 0.000183 kPa
376.19 K | 0.000231 kPa and 0.000221 kPa
378.15 K | 0.000287 kPa and 0.000299 kPa and 0.000285 kPa
380.3 K | 0.000373 kPa and 0.000356 kPa and 0.000364 kPa
382.22 K | 0.00045 kPa
384.7 K | 0.000572 kPa and 0.000574 kPa
386.12 K | 0.000663 kPa and 0.000649 kPa
388.92 K | 0.000905 kPa and 0.000871 kPa and 0.000866 kPa

O=C(O)c1cccc(O)c1O [2,3-dihydroxybenzoic acid]
Settings | Molar enthalpy of transition or fusion [kcal/mol] | Normal melting temperature [°C]
[1] | – | 203.2
[2] | 7.62 | –

[1]
Settings | vapor or sublimation pressure
345.22 K | 0.000158 kPa and 0.000159 kPa and 0.000157 kPa
347.21 K | 0.000201 kPa and 0.000196 kPa and 0.000197 kPa
349.23 K | 0.00025 kPa and 0.000248 kPa and 0.000246 kPa
351.19 K | 0.000308 kPa and 0.00031 kPa
353.21 K | 0.00038 kPa and 0.000377 kPa
355.17 K | 0.000468 kPa and 0.000466 kPa
357.2 K | 0.000569 kPa and 0.000565 kPa and 0.000564 kPa
359.2 K | 0.000716 kPa and 0.000708 kPa and 0.000711 kPa
361.21 K | 0.000867 kPa and 0.000857 kPa and 0.000861 kPa
363.18 K | 0.001039 kPa and 0.001029 kPa

O=C(O)c1ccc(O)c(O)c1 [3,4-dihydroxybenzoic acid]
[1]
Settings | vapor or sublimation pressure
387.12 K | 8.9e-05 kPa and 8.7e-05 kPa and 8.6e-05 kPa
391.31 K | 0.000132 kPa and 0.000133 kPa
393.33 K | 0.000166 kPa and 0.000164 kPa and 0.000165 kPa
395.2 K | 0.0002 kPa and 0.000202 kPa and 0.000201 kPa
397.32 K | 0.000249 kPa and 0.000253 kPa and 0.00025 kPa
401.25 K | 0.000367 kPa and 0.000365 kPa
403.26 K | 0.000451 kPa and 0.000452 kPa and 0.00045 kPa

— the NIST ThermoML archive (doi:10.1021/je900777q)
